Reference: ChEMBL document CHEMBL1129240, “Synthesis of acyclo-C-nucleosides in the imidazo[1,2-a]pyridine and pyrimidine series as antiviral agents” (J Med Chem, 1996)
Converted amounts (≈) assume the structure as drawn.

Tests used:
Cytomegalovirus [1] = assay: Minimum Inhibitory Concentration (MIC) tested for activity against Cytomegalovirus (CMV) using AD169 strain; format: functional; conditions: Human betaherpesvirus 5
[2] = Cytotoxic concentration required to cause microscopically detectable alteration of normal cell morphology of E6SM cells; format: cell-based; conditions: human, read-out: CC50
[3] = Cytotoxic concentration required to cause microscopically detectable alteration of normal cell morphology of HeLa cells; format: cell-based; conditions: human, read-out: CC50
[4] = Minimum cytotoxic concentration to reduce the HEL cell proliferation by 50%; format: cell-based; conditions: human, HEL cells; read-out: MCC
Human alphaherpesvirus 3 [5] = assay: Minimum Inhibition Concentration (MIC) for activity against Varicella-Zoster Virus(VZV) using OKA (TK+) strain; format: functional
[6] = Cytotoxic concentration required to cause microscopically detectable alteration of normal cell morphology of Vero cells; format: cell-based; conditions: chlorocebus sabaeus, read-out: CC50
Cytomegalovirus [7] = assay: Minimum Inhibitory Concentration (MIC) tested for activity against Cytomegalovirus (CMV) using Davis strain; format: functional; conditions: Human betaherpesvirus 5
[8] = Cytotoxic concentration required to reduce CEM cell viability by 50%; format: cell-based; conditions: human, CCRF-CEM (CEM) cells
Human alphaherpesvirus 3 [9] = assay: Minimum Inhibitory Concentration (MIC) tested for activity against Varicella-Zoster Virus(VZV) using YS/R (TK-) strain.; format: functional
Human alphaherpesvirus 3 [10] = assay: Minimum Inhibition Concentration (MIC) for activity against Varicella-Zoster Virus(VZV) using YS(TK+) strain.; format: functional
Human alphaherpesvirus 3 [11] = assay: Minimum Inhibition Concentration (MIC) for activity against Varicella-Zoster Virus(VZV) using 07/1 (TK-) strain.; format: functional
Human alphaherpesvirus 3 [12] = assay: Minimum Inhibition Concentration (MIC) for activity against Varicella-Zoster Virus(VZV) using YS/R (TK-) strain.; format: functional
Human alphaherpesvirus 3 [13] = assay: Minimum Inhibitory Concentration (MIC) for activity against Varicella-Zoster Virus(VZV) using OKA (TK+) strain; format: functional
Human alphaherpesvirus 3 [14] = assay: Minimum Inhibitory Concentration (MIC) tested for activity against Varicella-Zoster Virus(VZV) using YS(TK+) strain.; format: functional
Human alphaherpesvirus 3 [15] = assay: Minimum Inhibitory Concentration (MIC) tested for activity against Varicella-Zoster Virus(VZV) using 07/1 (TK-) strain.; format: functional
Cytomegalovirus [16] = assay: Minimum Inhibition Concentration (MIC) for activity against Cytomegalovirus (CMV) using Davis strain; format: functional; conditions: Human betaherpesvirus 5
Cytomegalovirus [17] = assay: Minimum Inhibition Concentration (MIC) for activity against Cytomegalovirus (CMV) using AD169 strain; format: functional; conditions: Human betaherpesvirus 5
Human alphaherpesvirus 3 [18] = assay: Minimum Inhibition Concentration (MIC) for activity against Varicella-Zoster Virus (VZV) using YS (TK+) strain.; format: functional
Human alphaherpesvirus 3 [19] = assay: Minimum Inhibition Concentration (MIC) for activity against Varicella-Zoster Virus (VZV) using YS/R (TK-) strain.; format: functional

SMILES | MIC (Cytomegalovirus [1]) | MCC [2] | MCC [3] | CC50 [4] | MIC (Human alphaherpesvirus 3 [5]) | MCC [6] | MIC (Cytomegalovirus [7]) | CC50 [8] | MIC (Human alphaherpesvirus 3 [9]) | MIC (Human alphaherpesvirus 3 [10]) | MIC (Human alphaherpesvirus 3 [11]) | MIC (Human alphaherpesvirus 3 [12]) | MIC (Human alphaherpesvirus 3 [13]) | MIC (Human alphaherpesvirus 3 [14]) | MIC (Human alphaherpesvirus 3 [15]) | MIC (Cytomegalovirus [16]) | MIC (Cytomegalovirus [17]) | MIC (Human alphaherpesvirus 3 [18]) | MIC (Human alphaherpesvirus 3 [19])
Cc1ccn2c(CSCCCO)cnc2c1 | 30 mg/L (≈ 127 µM) | > 100 µg/mL | 40 µg/mL | > 100 mg/L | > 40 mg/L | > 40 µg/mL | 30 mg/L (≈ 127 µM) | 17 mg/L (≈ 71.9 µM) | > 40 mg/L | > 40 mg/L | > 40 mg/L | – | – | – | – | – | – | – | –
O=c1[nH]c(=O)n([C@H]2C[C@H](O)[C@@H](CO)O2)cc1/C=C/Br [BRIVUDINE] | – | > 400 µg/mL | > 400 µg/mL | > 50 mg/L | 0.0009 mg/L (≈ 0.0027 µM) | > 400 µg/mL | – | – | – | 0.002 mg/L (≈ 0.006 µM) | > 50 mg/L | > 20 mg/L | – | – | – | – | – | – | –
O=c1[nH]cnc2c1ncn2[C@H]1CC[C@@H](CO)O1 [DIDANOSINE] | – | – | – | – | – | – | – | > 100 mg/L | – | – | – | – | – | – | – | – | – | – | –
Cc1cn([C@H]2C[C@H](N=[N+]=[N-])[C@@H](CO)O2)c(=O)[nH]c1=O [ZIDOVUDINE] | – | – | – | – | – | – | – | > 125 mg/L | – | – | – | – | – | – | – | – | – | – | –
Cc1cccn2c(CSCCO)cnc12 | 7 mg/L (≈ 31.5 µM) | 400 µg/mL | 40 µg/mL | 85 mg/L (≈ 382 µM) | – | 400 µg/mL | 6 mg/L (≈ 27 µM) | 9.5 mg/L (≈ 42.7 µM) | – | – | – | > 10 mg/L | 25 mg/L (≈ 112 µM) | 10 mg/L (≈ 45 µM) | 15 mg/L (≈ 67.5 µM) | – | – | – | –
CC(O)CSCc1cnc2ncccn12 (centres undefined) | > 40 mg/L | > 400 µg/mL | 400 µg/mL | > 100 mg/L | – | > 400 µg/mL | > 40 mg/L | > 100 mg/L | – | – | – | > 40 mg/L | > 40 mg/L | > 40 mg/L | > 40 mg/L | – | – | – | –
Nc1nc2c(ncn2COCCO)c(=O)[nH]1 [ACYCLOVIR] | – | > 400 µg/mL | – | > 100 mg/L | – | – | – | – | – | – | – | – | – | – | – | – | – | – | –
Cc1ccn2c(CSCC(C)O)cnc2c1 (centres undefined) | > 50 mg/L | > 400 µg/mL | 400 µg/mL | > 100 mg/L | – | > 400 µg/mL | – | 60 mg/L (≈ 254 µM) | 100 mg/L (≈ 423 µM) | > 100 mg/L | – | – | > 100 mg/L | – | – | > 50 mg/L | – | – | –
CCOC(=O)CSCc1cnc2cc(C)ccn12 | 25 mg/L (≈ 94.6 µM) | 200 µg/mL | > 100 µg/mL | 80 mg/L (≈ 303 µM) | – | > 200 µg/mL | 23 mg/L (≈ 87 µM) | 37 mg/L (≈ 140 µM) | > 40 mg/L | – | – | – | > 40 mg/L | > 40 mg/L | > 40 mg/L | – | – | – | –
Cc1cccc2ncc(CSCc3ccccc3)n12 | – | 10 µg/mL | 40 µg/mL | – | – | 40 µg/mL | – | 9.9 mg/L (≈ 36.9 µM) | – | – | – | – | – | – | – | – | – | – | –
Cc1cccc2ncc(CSCC(O)CO)n12 (centres undefined) | > 10 mg/L | 400 µg/mL | > 100 µg/mL | 75 mg/L (≈ 297 µM) | – | 400 µg/mL | 25 mg/L (≈ 99.1 µM) | 45 mg/L (≈ 178 µM) | > 40 mg/L | – | – | – | > 40 mg/L | > 40 mg/L | > 40 mg/L | – | – | – | –
c1ccc(CSCc2cnc3ncccn23)cc1 | 2 mg/L (≈ 7.83 µM) | 100 µg/mL | 40 µg/mL | 40 mg/L (≈ 157 µM) | – | 200 µg/mL | 2 mg/L (≈ 7.83 µM) | 4.2 mg/L (≈ 16.4 µM) | – | – | – | > 10 mg/L | 8.8 mg/L (≈ 34.5 µM) | 2.4 mg/L (≈ 9.4 µM) | 5 mg/L (≈ 19.6 µM) | – | – | – | –
Cc1ccn2c(CSCc3ccccc3)cnc2c1 | – | 100 µg/mL | 40 µg/mL | 45 mg/L (≈ 168 µM) | 15 mg/L (≈ 55.9 µM) | 40 µg/mL | – | 3.1 mg/L (≈ 11.6 µM) | – | – | – | – | – | – | – | 3.5 mg/L (≈ 13 µM) | 3.5 mg/L (≈ 13 µM) | 17 mg/L (≈ 63.3 µM) | 10 mg/L (≈ 37.3 µM)
Nc1ccn(C[C@@H](CO)OCP(=O)(O)O)c(=O)n1.O.O [CIDOFOVIR] | 0.05 mg/L | – | – | > 100 mg/L | 0.04 mg/L | – | 0.05 mg/L | – | – | 0.033 mg/L | – | 0.004 mg/L | – | – | – | – | – | – | –
Cc1cccc2ncc(CSCCO)n12 | > 10 mg/L | 200 µg/mL | 100 µg/mL | 40 mg/L (≈ 180 µM) | – | 200 µg/mL | > 10 mg/L | 22 mg/L (≈ 99 µM) | – | – | – | > 10 mg/L | > 10 mg/L | > 10 mg/L | > 10 mg/L | – | – | – | –
